For one experiment, the system named is secondary MEF cells. As to the kind of experiment: Small molecules in first/second reprogramming steps, Pdx1/Nkx6.1 double staining on day 16. It is filed as cell-based, mouse. The conditions noted are these: 1 μM Bix-01294 D0 to D6; 280 μM pVc D0 to D12; readout day 16. The method, then:
The inventors then hypothesized that overlapping lineage-specific patterning conditions based on small molecules with early reprogramming would enhance pancreatic induction. To this end, further screens of the inventors' drug collection were performed during the first- and second-step inductions, with double staining of Pdx1 and Nkx6.1 at the end of the third step (day 16) as a readout. […] In particular, 1 μM Bix-01294 (a G9a histone methyltransferase inhibitor), when added from D0 to D6, and 280 μM pVc, when added from D0 to D12, increased the number of Pdx1+/Nkx6.1+ colonies to about 3 fold and 4 fold respectively (FIG. 4D-4E).

Experiment [1] has as its system pancreatic progenitor-like cells (PPLCs). Briefly: Maturation of PPLCs into pancreatic-like cells (step IV, day 25). It is filed as cell-based, mouse. The conditions noted are these: 5 μM SB203580 or 280 μM pVc used individually, D16-D25, day 25. On the procedure:
The pancreatic progenitor-like cells generated as described herein were treated with Med-IV medium containing laminin, nicotinamide, and B27 etc. as previously reported (Schroeder et al., 2006) to determine whether those PPLCs can be further differentiated into mature pancreatic like cells. After 9 days of culture in this medium, a small population (about 0.5%) of insulin and C-peptide double-positive cells was detected.
To improve efficiency of pancreatic maturation, the inventors' drug collection was further screened in a “fourth” step (step IV) to identify compounds that increase the percentage of cells that express insulin and Pdx1 on day 25.

Experiment [2] relates to Dox-inducible secondary mouse embryonic fibroblasts (MEFs). Briefly: Direct reprogramming of secondary MEFs into definitive endoderm-like cells (Sox17/Foxa2). The note with it: 1 μM Bix-01294 D0-D6; 280 μM pVc D0-D12. The format is cell-based.
Description: Dox-inducible secondary mouse embryonic fibroblasts (MEFs) (cells at passage 3-4 were regularly used) were plated on Matrigel-coated culture dishes at a cell density of 1×10^4 cells/cm^2. Cells were cultured in MEF medium (Dulbecco's modified Eagle's medium with 10% fetal bovine serum and 2 mM Glutamax) for an additional day. The medium was then changed to Med I (Knock-out DMEM with 10% knock-out serum replacer, 5% FBS, 2 mM Glutamax, 0.1 mM non-essential amino acids (NEAA), and 0.055 mM β-mercaptoethanol) supplemented with 4 μg/ml Dox, 50 ng/ml Activin A and 1 mM LiCl for the indicated time. […] All reagents were purchased from Invitrogen if not specified, and all cytokines were from R&D Systems. […]
Total RNA was extracted using the RNeasy Plus Mini Kit in combination with QIAshredder (Qiagen). […] Expression of pluripotency and lineage-specific marker genes was analyzed by real-time PCR with iQ SYBR Green Supermix (Bio-Rad). […]
To test this hypothesis, conditions were evaluated in which definitive endoderm induction factors (Activin/Li) were added to fibroblasts either after (Approach-I) or during (Approach II) iPSC factor expression, using Sox17 and Foxa2 expression as a measure of DELC induction (FIG. 1A).
In experiment [3] the test system is definitive endoderm-like cells (DELCs). Briefly: Induction of DELCs into Pdx1+/Nkx6.1+ pancreatic progenitor-like cells (step III). It is filed as cell-based, mouse. The conditions noted are these: screen of 400 compounds, confirmed in larger-well cultures.
Description: At the end of treatment, lineage specific markers were analyzed by immunostaining and/or real-time PCR.
Primary antibodies used were Sox17 (R&D), Foxa2 (Millipore), Pdx1 (R&D), Hnf6 (Santa Cruz), Pax6 (Covance), Sox9 (Santa Cruz), Nkx6.1 (Developmental Studies Hybridoma Bank), Insulin (Dako), Glucagon (Sigma), Somatostatin (Abcam), Amylase (Abcam), and CK19 (Abcam). Nuclei were visualized by DAPI (Sigma-Aldrich) staining Images were captured using a Nikon Eclipse TE2000-U microscope.
An available drug collection of 400 compounds in the 48-well format was screened to identity small molecules that induce high percentages of Pdx1^+/Nkx6.1^+ cells in DELC populations. Med-III medium (DMEM supplemented with 1×B27, 2 mM Glutamax) was used as the basal condition and double staining of Pdx1 and Nkx6.1 at 4 days post-induction was used as the readout.
Induction of Pdx1 and Nkx6.1 expression by small molecules is referred herein to the “third step” (step III) of pancreatic induction.
The subject of experiment [4] is HDAC activity in HeLa extracts. The conditions noted are these: read-out: IC50 for inhibition of HDAC activity; cited from earlier work.
The next experiment relates to cPE cells. As to the kind of experiment: Maturation of cPE cells into C-peptide positive beta-like cells in vitro. The conditions noted are these: supplemented individually to basal pancreatic differentiation media. The format is cell-based, human. An excerpt: Full maturation towards glucose responsive cells is optimally illustrated by transplantation of in vitro differentiated pancreas endoderm progenitor cells into immune compromised mice. […] While C-peptide positive cells expressing high levels of PDX1 were consistently observed after 10-14 days in culture (FIG. 11B), the relatively low number of cells (˜0.5%) indicated further optimization of conditions may improve the frequency of conversion to functional beta-like cells. Chemical compounds able to promote differentiation of definitive endoderm (Borowiak et al. (2009)) and PDX1^+ progenitors (Chen et al. (2009) have been identified previously. However, molecules directing the final steps of differentiation into beta-like cells have not been uncovered, likely due to difficulties in generating and maintaining sufficient numbers of differentiation-competent pancreatic endodermal progenitor cells.
A chemical screen was performed with the intent of identifying factors that would result in the more efficient development of C-peptide positive cells from expanded cPE cells.

The subject of experiment [5] is histone deacetylases (HDACs). The note with it: isoform not stated; read-out: IC50 (histone deacetylase); cited from earlier work.
The subject of another experiment is presenilase activity. The note with it: At higher concentrations (20-4000/1); cited from earlier work.
For the next experiment, the target named is γ-secretase. The conditions noted are these: total β-amyloid; cited from earlier work.
The target of another experiment is SAPK2/p38 (Homo sapiens, UniProt Q16539). The conditions noted are these: CK1 and ALK5 inhibitor; cited from earlier work.
Experiment [6] relates to Human foreskin fibroblasts. Briefly: Conversion of human fibroblasts into definitive endodermal progenitor (cDE) colonies.

Chain of SAPK2/p38 (Q16539 whole entry): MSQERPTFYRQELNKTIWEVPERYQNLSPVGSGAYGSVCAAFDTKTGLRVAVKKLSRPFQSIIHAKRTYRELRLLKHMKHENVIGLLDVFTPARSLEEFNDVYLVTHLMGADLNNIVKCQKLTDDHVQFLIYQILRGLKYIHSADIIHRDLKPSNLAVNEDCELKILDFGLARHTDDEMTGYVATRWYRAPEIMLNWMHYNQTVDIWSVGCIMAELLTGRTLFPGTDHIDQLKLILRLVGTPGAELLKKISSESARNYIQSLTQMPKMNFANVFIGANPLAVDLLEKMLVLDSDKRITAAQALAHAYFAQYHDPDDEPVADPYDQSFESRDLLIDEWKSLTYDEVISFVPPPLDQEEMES

Regarding “2-phospho-L-ascorbic acid trisodium salt [pVc]”, in the experiment on secondary MEF cells, the “number of Pdx1+/Nkx6.1+ colonies” value is roughly 4 fold. Also, in experiment [1], the “number of insulin+/Pdx1+ double-positive cells” value is reported as “significantly increased”. Also, the “numbers of Sox17 and Foxa2 single positive and double positive cells” value in experiment [2] was “no significant influence”. In addition, the “hit confirmation: increase of Pdx1 and/or Nkx6.1 expression” value (shortened to “hit confirmation: increase”) in experiment [3] was “Confirmed hits”.
In the case of `Cc1cccc(-c2nn(C(=S)Nc3ccccc3)cc2-c2ccnc3ccccc23)n1` [A83-01, 3-(6-Methyl-2-pyridinyl)-N-phenyl-4-(4-quinolinyl)-1H-pyrazole-1-carbothioamide], the “hit confirmation: increase” value in [3] is listed as “Confirmed hits”.
For the molecule `Nc1ccccc1NC(=O)CCCCCCC(=O)Nc1ccccc1` [BML-210, N1-(2-aminophenyl)-N8-phenyl-octanediamide], the IC50 in experiment [4] was roughly 80000 nM.
Turning to `COC(=O)C1=C(C)NC(C)=C([N+](=O)[O-])C1c1ccccc1C(F)(F)F` (stereo not drawn) [BayK-8644, 3-pyridinecarboxylic acid, 1,4-dihydro-2,6-dimethyl-5-nitro-4-(2-(trifluoromethyl)phenyl), methyl ester], in the experiment with cPE cells, the “effect on percentage of C-peptide positive cells” value (from here on “effect on percentage”) is “effective in increasing”.
As for `COc1cc2nc(N3CCCN(C)CC3)nc(NC3CCN(Cc4ccccc4)CC3)c2cc1OC` [Bix-01294], the “number of Pdx1+/Nkx6.1+ colonies” value in the experiment with secondary MEF cells was “about 3 fold”. For the same molecule, in [2], the “numbers of Sox17 and Foxa2 single positive and double positive cells” value is “no significant influence”.
As for `CC1(C)NC(=O)C(CCCCCC(=O)[C@H]2CO2)NC(=O)C2CCCN2C(=O)[C@@H](Cc2ccccc2)NC1=O` (stereo partly drawn) [Chlamydocin, (3R)-3-benzyl-6,6-dimethyl-9-[6-[(2R)-oxiran-2-yl]-6-oxohexyl]-1,4,7,10-tetrazabicyclo[10.3.0]pentadecane-2,5,8,11-tetrone], the half-inhibitory concentration (IC50) in experiment [5] was roughly 0.15 nM.
Consider `C[C@H](NC(=O)Cc1cc(F)cc(F)c1)C(=O)N[C@H]1N=C(c2ccccc2)c2ccccc2N(C)C1=O` [Compound E], for which the “effect on presenilase activity” value in the experiment with presenilase activity is listed as “only weakly affects”. The “effect on percentage” value in the experiment with cPE cells was “effective in increasing”. Also, on γ-secretase, the IC50 is 0.3 nM.
Consider `NC(=O)c1ccc(-c2nc(-c3ccc4c(c3)OCCO4)c(-c3ccccn3)[nH]2)cc1` [D 4476, 4-[4-(2,3-Dihydro-1,4-benzodioxin-6-yl)-5-(2-pyridinyl)-IH-imidazol-2-yl]benzamide], for which, on SAPK2/p38, the “selectivity over SAPK2/p38” value was “greater than 20 fold”.
Consider `CC1NC(=O)C(C)NC(=O)C2CCCN2C(=O)C(CCCCCCC(=O)C2CO2)NC1=O` [HC Toxin, (6R,9S,14aR)-3,6R-dimethyl-9S-(7-((S)-oxiran-2-yl)-7-oxoheptyl)decahydropyrrolo[1,2-a][1,4,7,10]tetraazacyclododecine-1,4,7,10-tetranone], for which the IC50 in [5] is 30 nM.
For the molecule `Cc1c(C(=O)Nc2ccc(N3C[C@@H](C)O[C@@H](C)C3)nc2)cccc1-c1ccc(OC(F)(F)F)cc1` [LDE225], the “hit confirmation: increase” value in [3] is given as “Confirmed hits”.
As to `Nc1ccccc1NC(=O)c1ccc(CNc2nccc(-c3cccnc3)n2)cc1` [MGCD0103, N-(2-aminophenyl)-4-[[(4-pyridin-3-ylpyrimidin-2-yl)amino]methyl]benzamide], in experiment [5], the IC50 was roughly 100 nM.
Regarding `Nc1ccccc1NC(=O)c1ccc(CNC(=O)OCc2cccnc2)cc1` [MS-27-275, pyridin-3-ylmethyl-N-[[4-[(2-aminophenyl)carbamoyl]phenyl]methyl]carbamate], the IC50 in [5] is 100 to 1000 nM.
As for `CCNC(=O)[C@H]1O[C@@H](n2cnc3c(N)ncnc32)C(O)C1O` (stereo partly drawn) [NECA, 5′-N-ethylcarboxamidoadenosine], the “further increase of conversion rate over improved condition (NaB, Par, RG)” value in experiment [6] (FOXA2 positive colonies day 28) is listed as 2 fold. The “increase over the basal protocol” value in experiment [6] (NECA together with NaB, Par, RG108) came to 5 fold. Further, the “FOXA2 and SOX17 double-positive cDE colonies from 400,000 human fibroblasts” value in [6] (optimized condition (NaB, Par, RG108, NECA)) was “approximately fifty”.
For `C[S+]([O-])c1ccc(-c2nc(-c3ccc(F)cc3)c(-c3ccncc3)[nH]2)cc1` (stereo not drawn) [SB203580, 4-(4-fluorophenyl)-2-(4-methylsulfinylphenyl)-5-(4-pyridyl)-1H-imidazole], the “number of insulin+/Pdx1+ double-positive cells” value in experiment [1] was “significantly increased”.
As for `CC(/C=C/C(=O)NO)=C\[C@@H](C)C(=O)c1ccc(N(C)C)cc1` [Trichostatin A, (R,2E,4E)-6-(4-(dimethylamino)benzoyl)-N-hydroxy-4-methylhepta-2,4-dienamide], in experiment [5], the IC50 is roughly 1.8 nM.
As for `O=C1O[C@H]([C@@H](O)CO)C(O)=C1O` [Vitamin C], the “effect on percentage” value in the experiment on cPE cells is listed as “effective in increasing”.

The IC50 is the concentration at which inhibition is half-maximal.

The record behind these values is patent publication US9909104B2, “Generating definitive endoderm and pancreatic progenitor cells” (The J. David Gladstone Institutes, a testamentary trust …, priority 2013, dated 2018).
